Patent US7915245B2, “Methods and compositions of trail-death receptor agonists/activators” (The Board of Regents of the University of Texas System, priority 2007, dated 2011)

Tests used:
[1] = test system: breast cancer MDA-MB-231 cell line; assay: XTT cell viability with signaling inhibitor pretreatment, MDA-MB-231; format: cell-based, human; conditions: then DRA 72 h; for effect of Akt inhibitor on the inhibitory effect on cell viability: Akt inhibitor 0.5 μM 4 h pretreatment; for effect of PI-3 kinase inhibitor LY294002 on the inhibitory effect on cell viability: LY294002 2.5 μM 4 h pretreatment; for effect of NFκB inhibitor MG132 on the inhibitory effect on cell viability: MG132 2.5 μM 4 h pretreatment
Protocol: FIG. 39. […] MDA-MB-231 cells were pretreated with NFκB inhibitor MG132 (2.5 μM) for 4 h followed by treatment with various concentrations of DRA11, DRA9, and DRA9S for 72 h. At the end of incubation, cell viability was measured by XTT assay. Data represent the mean±S.D.
FIG. 40. […] MDA-MB-231 cells were pretreated with LY294002 (2.5 μM) for 4 h followed by treatment with various concentrations of DRA11, DRA9, and DRA9S for 72 h. At the end of incubation, cell viability was measured by XTT assay. Data represent the mean±S.D.
FIG. 41. […] MDA-MB-231 cells were pretreated with Akt inhibitor (0.5 μM) for 4 h followed by treatment with various concentrations of DRA11, DRA9, and DRA9S for 72 h. At the end of incubation, cell viability was measured by XTT assay. Data represent the mean±S.D.
(§1) XTT Assay. Cells (1×10^4 cells per well) were seeded in 96-well plates (flat bottom), and treated with death receptor agonists/activators/small molecules in the presence or absence of TNF-related apoptosis inducing ligand (TRAIL). Plates were incubated for various time points at 37° C. and 5% CO2. Before the end of the experiment, 50 μl XTT (sodium 3′[1-(phenylaminocarbonyl)-3,4-tetrazolium]-bis(4-methoxy-6-nitro) benzene sulfonic acid hydrate) labeling mixture (final concentration, 125 μM sodium XTT and 25 μM PMS) per well was added and plates were incubated for a further 4 h at 37° C. and 5% CO2. The spectrophotometric absorbance of the sample was measured using a microtitre plate (ELISA) reader. The wavelength to measure absorbance of the formazan product was 450 nm, and the reference wavelength was 650 nm.

[2] = test system: mesothelioma REN cell line; assay: XTT cell viability, mesothelioma REN; format: cell-based; conditions: then DRA 72 h; for effect of NFκB inhibitor MG132 on the inhibitory effect on cell viability: MG132 2.5 μM 4 h
Protocol: FIG. 45. […] Mesothelioma REN cells were treated with NFκB inhibitor MG132 (2.5 μM) for 4 h followed by treatment with various concentrations of DRA11, DRA9, and DRA9S for 72 h. At the end of incubation, cell viability was measured by XTT assay. Data represent the mean±S.D.
FIG. 55. […] REN cells were pretreated with either control peptide (10 μM) or pan caspase inhibitor (z-VAD-fink, 25 μM) for 2 h, followed by treatment with various doses of DRA11, DRA9 and DRA9S for 72 h. At the end of incubation, cell viability was measured by XTT assay. Data represent the mean±S.D.
as §1

[3] = test system: breast cancer MDA-MB-468 cells xenografted; assay: MDA-MB-468 xenograft tumor growth; format: in vivo, Balb c nude mice; conditions: 40 mg/kg iv, 5 days per week
Protocol: FIG. 30. […] MDA-MB-468 cells (2×10^6 cells, in a final volume of 0.1 ml PBS) were injected subcutaneously in the right flank of Balb c nude mice. After tumor formation (about 100 mm^3), nude mice were treated (iv) with vehicle control (0.1 ml normal saline), and DRA9S (40 mg/kg, 0.1 ml volume) everyday 5 days per week throughout the duration of the experiment. Tumor volume was calculated using the equation: (volume=length×width×depth×0.5236 mm^3). Data represent mean±S.E.
MDA-MB-468 cells (2×10^6 cells, in a final volume of 0.1 ml PBS) were injected subcutaneously in the right flank of Balb c nude mice. After tumor formation (about 100 mm^3), nude mice were treated (iv) with vehicle control (0.1 ml normal saline), and DRA9S (40 mg/kg, 0.1 ml volume) everyday 5 days per week throughout the duration of the experiment. Tumor volume was calculated using the equation: (volume=length×width×depth×0.5236 mm^3). See, for example, FIG. 30. Data represent mean ±S.E.

[4] = test system: human normal prostate epithelial cells (PrECs); assay: XTT cell viability, normal prostate epithelial cells; format: cell-based; conditions: 72 h
Protocol: FIG. 22. DRAs have no effect on cell viability in human normal prostate epithelial cells (PrECs). PrECs were treated with DRA11, DRA9 and DRA9S for 72 h. At the end of incubation period, cell viability was measured by XTT assay. Data represent the mean±S.D. Control refers to group treated with DMSO (0.01%).
FIGS. 60 A, B & C. DRAs has no effect on cell viability of human normal mammary, prostate and lung epithelial cells. Human normal mammary (FIG. 60A), prostate (FIG. 60B) and lung (FIG. 60C) epithelial cells were treated with DRA11 (0-25 μM) for 72 h, and cell viability was measured by XTT assay.
XTT Assay. Cells (1×10^4 cells per well) were seeded in 96-well plates (flat bottom), and treated with death receptor agonists/activators/small molecules in the presence or absence of TNF-related apoptosis inducing ligand (TRAIL). Plates were incubated for various time points at 37° C. and 5% CO2. […] The spectrophotometric absorbance of the sample was measured using a microtitre plate (ELISA) reader. The wavelength to measure absorbance of the formazan product was 450 nm, and the reference wavelength was 650 nm.
PrECs were treated with DRA11, DRA9 and DRA9S for 72 h. At the end of incubation period, cell viability was measured by XTT assay. […]

normal human hepatocytes = assay: XTT cell viability, normal hepatocytes; format: cell-based; conditions: 0, 1, 3, 5 and 10 μM, 72 h
Protocol: FIGS. 59 A, B & C. DRAs has no effect on cell viability of normal human hepatocytes. Normal human hepatocytes were incubated with various concentrations of DRA11 (0, 1, 3, 5 and 10 μM) (FIG. 59A), DRA9S (0, 1, 3, 5 and 10 μM) (FIG. 59B), and DRA9 (0, 1, 3, 5 and 10 μM) (FIG. 59C) for 72 h. At the end of incubation period, cell viability was measured by XTT assay.
as §1

SMILES	effect of Akt inhibitor on the inhibitory effect on cell viability [1]	effect of PI-3 kinase inhibitor LY294002 on the inhibitory effect on cell viability [1]	effect of NFκB inhibitor MG132 on the inhibitory effect on cell viability [1]	effect of NFκB inhibitor MG132 on the inhibitory effect on cell viability [2]	growth of xenografted MDA-MB-468 tumors (tumor volume) [3]	effect on cell viability in PrECs [4]	effect on cell viability of normal human hepatocytes (normal human hepatocytes)	effect of pan caspase inhibitor (z-VAD-fmk) on the inhibitory effect on cell viability ([2]; z-VAD-fmk 25 μM 2 h pretreatment)
CCOc1cc(Br)c(Br)c(/C=N/c2cccc(C(=O)O)c2C)c1O [DRA9S]	enhances the inhibitory effects	enhances the inhibitory effects	enhances the inhibitory effects	enhances the inhibitory effects	inhibits growth	no effect	no effect	
CCOc1cc(Br)c(Br)c(/C=N/c2cccc(C(=O)O)c2)c1O [DRA9]	enhances the inhibitory effects	enhances the inhibitory effects	enhances the inhibitory effects	enhances the inhibitory effects		no effect	no effect	blocks the inhibitory effects
